7 molecules from ChEMBL document CHEMBL1201862, “PubChem BioAssay data set” (2004) can be followed below.

Holding throughout (test): inhibition of tumour cell growth, NCI panel, 48 h
For experiment [1], the system named is K562.
Experiment [2] deals with A498.
Experiment [3] has as its system NCI-H226.
Experiment [4] concerns NCI-H522.
In experiment [5] the test system is HL-60.
The test system of experiment [6] is MOLT-4.
The subject of experiment [7] is MDA-MB-435.
Experiment [8] has as its system UACC-257.
In experiment [9] the test system is OVCAR-3.
Experiment [10] has as its system OVCAR-4.
For experiment [11], the system named is HCC 2998.
The test system of experiment [12] is TK-10.
Experiment [13] has as its system CCRF-CEM.
Experiment [14] deals with SF-295.
Experiment [15] deals with RXF 393.
Experiment [16] deals with Malme-3M.
Experiment [17] relates to COLO 205.
The subject of experiment [18] is KM12.
For experiment [19], the system named is HCT-116.
Experiment [20] has as its system EKVX.

Each structure is given as a SMILES string.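 Cells were grown in 96-well plates and exposed to each compound for 48 hours at five concentrations; endpoints were interpolated linearly between bracketing concentrations, or set to the highest concentration if not reached. GI50 marks 50% less growth.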 Calls of active or inactive are those of the source. No stated cut-off is given here; in the data, active = GI50 up to about 1.1 µM and inactive = higher.

As for `CNC(=S)/N=c1/sc(NC)nc2sc3c(c12)CCCC3`, the GI50 in experiment [1] is > 100 µM (inactive); in experiment [2] it was > 100 µM (inactive); in [3] it was > 100 µM (inactive); in experiment [4], 36.4 µM (inactive); in experiment [5] it was > 100 µM (inactive); in [6], > 100 µM (inactive). Also, the GI50 in experiment [7], in [8], in experiment [9], in experiment [10], in [11] and in [12] was > 100 µM (inactive) throughout. The GI50 was > 100 µM (inactive) in experiment [13]; 30.8 µM (inactive) in [14]; 22.5 µM (inactive) in experiment [15]; > 100 µM (inactive) in experiment [16]; > 100 µM (inactive) in experiment [17]; > 100 µM (inactive) in experiment [18]. Further, the GI50 in [19] is > 100 µM (inactive); in [20] it was 76.6 µM (inactive).
As to `C=C1C(=O)C[C@H]2C(=C)C(=O)O[C@@H]2C2C1CC[C@@]2(C)O` (stereo partly drawn), the GI50 was 16.3 µM (inactive) in experiment [1]; > 100 µM (inactive) in experiment [2]; 22.2 µM (inactive) in [3]; 12.7 µM (inactive) in experiment [4]; > 100 µM (inactive) in experiment [5]; 23.2 µM (inactive) in experiment [6]. The GI50 was 30.3 µM (inactive) in experiment [7]; 21.5 µM (inactive) in experiment [8]; 16.1 µM (inactive) in experiment [9]; > 10 µM (inactive) in [10]; 19 µM (inactive) in experiment [11]; 21.1 µM (inactive) in experiment [12]. Moreover, the GI50 in experiment [13] was > 100 µM (inactive); in experiment [14] it was > 100 µM (inactive); in [15] it was 15.4 µM (inactive); in [16], 16.3 µM (inactive); in experiment [17], 14.5 µM (inactive); in [18], 50 µM (inactive). Also, the GI50 in [19] was 31.8 µM (inactive); in [20], 62.8 µM (inactive).
Take `BrCC[N+]12CC[N+](CCBr)(CC1)C2`: the GI50 in [1], in experiment [2], in [3], in [4], in [5] and in experiment [6] was > 100 µM (inactive) throughout. The GI50 in experiment [7], in experiment [8], in [9], in experiment [10], in experiment [11] and in [12] was > 100 µM (inactive) throughout. In addition, the GI50 in experiment [13], in experiment [14], in experiment [15], in experiment [16], in [17] and in experiment [18] was > 100 µM (inactive) throughout. Further, the GI50 in experiment [19] and in [20] was > 100 µM (inactive) in each case.
With `O=S1(=O)N=C(NCc2c[nH]c3ccccc23)N(c2ccccc2)c2ccncc21`, the GI50 in [1] was > 100 µM (inactive); in experiment [2] it was > 100 µM (inactive); in experiment [3], 60.3 µM (inactive); in experiment [4], 25.1 µM (inactive); in experiment [5], > 100 µM (inactive); in experiment [6], > 100 µM (inactive). The GI50 in experiment [7], in [8], in experiment [9], in [10], in [11] and in [12] was > 100 µM (inactive) throughout. For the same molecule, the GI50 in [13], in experiment [14], in experiment [15], in [16], in experiment [17] and in experiment [18] was > 100 µM (inactive) in each case. The GI50 in [19] was > 100 µM (inactive); in [20] it was 64.9 µM (inactive).
Consider `N=c1oc2ccccc2cc1C(=O)NC12CC3CC(CC(C3)C1)C2`, for which the GI50 in experiment [1] is 13.9 µM (inactive); in [2], 22.1 µM (inactive); in experiment [3], 24.2 µM (inactive); in experiment [4], 3.55 µM (inactive); in [5], 9.16 µM (inactive); in [6] it was 2.41 µM (inactive). For the same molecule, the GI50 in experiment [7] was 18.6 µM (inactive); in experiment [8], 23 µM (inactive); in [9] it was 12.5 µM (inactive); in [10], 19.9 µM (inactive); in [11], 14.5 µM (inactive); in experiment [12], 16 µM (inactive). Also, the GI50 in experiment [13] is 3.18 µM (inactive); in experiment [14], 20.6 µM (inactive); in [15], 6.52 µM (inactive); in experiment [16], 32.1 µM (inactive); in experiment [17] it was 14.1 µM (inactive); in [18] it was 12 µM (inactive). Besides, the figures for the GI50 in experiment [19] and in [20] were 15.6 µM (inactive) and 21.9 µM (inactive), respectively.
For the molecule `O=C1C(F)=CC(COC(c2ccccc2)(c2ccccc2)c2ccccc2)OC1n1cc(F)c(=O)[nH]c1=O` (stereo not drawn), the GI50 is 0.278 µM (active) in experiment [1]; 8.79 µM (inactive) in [2]; 1.83 µM (inactive) in experiment [3]; 1.61 µM (inactive) in [4]; 0.592 µM (active) in experiment [5]; 0.8 µM (active) in [6]. For the same molecule, the GI50 was 0.746 µM (active) in experiment [7]; 1.96 µM (inactive) in experiment [8]; 1.48 µM (inactive) in [9]; 3.99 µM (inactive) in [10]; 3.54 µM (inactive) in experiment [11]; 1.34 µM (inactive) in [12]. Moreover, the GI50 is 0.319 µM (active) in experiment [13]; 2.2 µM (inactive) in [14]; 1.96 µM (inactive) in experiment [15]; 3.33 µM (inactive) in experiment [16]; 1.91 µM (inactive) in experiment [18]; 2.77 µM (inactive) in experiment [19]. The GI50 in experiment [20] was 7.89 µM (inactive).
On to `CCOC(=O)C1=CN=C2C(=O)N(c3ccccc3)N(C)C2(C)C1=N` (stereo not drawn), for which the GI50 in [1], in experiment [2], in [3], in experiment [4], in experiment [5] and in experiment [7] was > 100 µM (inactive) each time. Moreover, the GI50 in experiment [8], in [9], in [10], in [11], in [12] and in experiment [13] was > 100 µM (inactive) each time. For the same molecule, the GI50 in [14], in experiment [15], in [16], in experiment [17], in experiment [18] and in experiment [19] was > 100 µM (inactive) in each case. The GI50 in experiment [20] is > 100 µM (inactive).
